What was measured:
[1] = tested on: APP/PS1 Alzheimer's disease (AD) mouse model; experiment: Dendritic spine density analysis (Golgi-Cox staining) in APP/PS1 AD mice; assay type: in vivo; settings: for spine deficits in CA3 pyramidal neurons and dentate gyrus granule cells: 15-month-old male AD mice
[2] = tested on: APP/PS1 Alzheimer's disease (AD) mouse model; experiment: Contextual fear learning in AD mice; assay type: in vivo; settings: 15-month-old male AD mice; 3.0 mg/kg/2nd day for 1 month; FIG. 3
Procedure: The therapeutic effect of fingolimod (FTY720) as an example for an S1PR modulator for use in the treatment of Alzheimer's disease was tested in an established double transgenic amyloid precursor protein/presenilin-1 (APP/PS1) Alzheimer's disease (AD) mouse model that starts to develop amyloid-β (Aβ) pathology in the neocortex and hippocampus at two and four months of age, respectively. This AD mouse model is particularly close to human AD pathology. Impaired LTP (long-term potentiation) at Schaffer collateral CA1 synapses in acute slices ex vivo is observed at five months in these mice and becomes detectable with in vivo recordings beyond six months of age. Moreover, hippocampus-dependent learning deficits in this APP/PS1 mouse model become apparent five to eight months after birth. […]
The analyses of the animals comprises dendritic spine density analysis, LTP recordings, Morris water maze spatial learning and memory testing, contextual fear condition training and memory testing, immunohistological stainings of microgliosis and astrogliosis, biochemical brain-derived neurotrophic factor (BDNF) quantification and downstream TrkB receptor (a high affinity BDNF receptor) signaling, and statistical analysis.

[3] = CD11c+/CD14+ age/AD-associated microglia in the cortex of AD mice; assay type: in vivo, mouse; settings: 15-month-old male AD mice; 1.0 mg/kg/2nd day for 1 month; FIG. 8
Procedure: (§1) The therapeutic effect of fingolimod (FTY720) as an example for an S1PR modulator for use in the treatment of Alzheimer's disease was tested in an established double transgenic amyloid precursor protein/presenilin-1 (APP/PS1) Alzheimer's disease (AD) mouse model that starts to develop amyloid-β (Aβ) pathology in the neocortex and hippocampus at two and four months of age, respectively. This AD mouse model is particularly close to human AD pathology. Impaired LTP (long-term potentiation) at Schaffer collateral CA1 synapses in acute slices ex vivo is observed at five months in these mice and becomes detectable with in vivo recordings beyond six months of age. Moreover, hippocampus-dependent learning deficits in this APP/PS1 mouse model become apparent five to eight months after birth.
(§2) Male APP/PS1 mice and littermate controls (wild-type healthy mice) were treated with intraperitoneal (i.p.) injections of fingolimod (FTY720; dissolved in 3% DMSO, 1.0 mg/kg or 3.0 mg/kg body weight) every second day for 1 to 2 months.
(§3) Substance A: Control, Substance B: FTY720 (1.0 mg/kg/2nd day) for 1 month.

[4] = tested on: CD11c+/CD14+ age/AD-associated microglia; experiment: as above; assay type: in vivo, mouse; settings: 15-month-old male AD mice; 1.0 mg/kg/2nd day for 1 month; FIG. 9
Procedure: as §1, §2, §3

Row | Compound | spine deficits in CA1 pyramidal neurons ([1]; aged (16-month-old) male AD mice, 1 mg/kg via drinking water for 1 month, starting at 15 months, FIG. 7) | deficit in contextual fear learning [2] | spine deficits in CA1 pyramidal neurons ([1]; 6-7-month-old male AD mice, low dose 0.2 mg/kg/2nd day for 1 month, FIG. 6) | spine deficits in CA3 pyramidal neurons and dentate gyrus granule cells ([1]; 1.0 mg/kg/2nd day for 1 month, near and distant to plaques, FIG. 4, 1 mg/kg) | spine deficits in CA3 pyramidal neurons and dentate gyrus granule cells ([1]; 1.0 mg/kg/2nd day for 1 month, near and distant to plaques, FIG. 4, listed as FTY, 1 mg/kg) | spine deficits in CA3 pyramidal neurons and dentate gyrus granule cells ([1]; 3.0 mg/kg/2nd day for 1 month, FIG. 5) | number of synaptic spines versus same-aged healthy mice (wild-type littermates) ([1]; AD mice at 6-7 months and 15-16 months, short-term treatment) | spine deficits in dendrites close to plaques ([1]; APP/PS1 mice, CA1 secondary apical dendrites <50 μm from nearest plaque, FIGS. 1 and 2) | spine deficits in dendrites distant to plaques ([1]; APP/PS1 mice, CA1 secondary apical dendrites >50 μm from closest plaque, FIGS. 1 and 2) | spine deficits in CA1 pyramidal neurons ([1]; male 15-month-old AD model mice, FIG. 1) | increased frequency of CD11c+/CD14+ age/AD-associated microglia in the cortex [3] | increased number of CD11c+/CD14+ age/AD-associated microglia in the cortex [4]
1 | CC(C)Oc1ccc(-c2nc(-c3cccc4c3CC[C@@H]4NCCO)no2)cc1C#N [Ozanimod] | very similar capacity to restore spine deficits | – | – | – | – | – | – | – | – | – | – | –
2 | CCCCCCCCc1ccc(CCC(N)(CO)CO)cc1 [Fingolimod] | – | restored the deficit | restored spine deficits | restored spine deficits | completely rescued spine decrease near and distant to AB plaques | restored spine deficits | restored at both ages (6-7 months and 15-16 months) to the level of same-aged healthy mice | significant amelioration of spine deficits | complete rescue of spine deficits | restored spine deficits | reduces the increased frequency | reduces the increased number

— patent US20250325501A1, “A SPHINGOSINE-1-PHOSPHATE RECEPTOR (S1PR) MODULATOR FOR USE IN TREATING A PATIENT SUFFERING FROM ALZHEIMER'S DEMENTIA” (Otto-von-Guericke-Universitaet Magdeburg, priority 2022, published 2025)
